Assay results from the NIST ThermoML archive (doi:10.1021/je030207i).

What was measured:
[1] = Liquid; Ebulliometric method (Recirculating still)
[2] = excess molar enthalpy (molar enthalpy of mixing); xn = mol fraction of the nth substance listed; conditions: 101.3 kPa, Liquid, Flow calorimetry

OCCO [1,2-ethanediol]
Conditions	Normal boiling temperature [°C]
[1]	197.23

OCCO [1,2-ethanediol] + CC(C)O
[2]
Conditions	excess molar enthalpy [kcal/mol]
298.15 K, x1 = 0.0678	0.0521
298.15 K, x1 = 0.1326	0.0876
298.15 K, x1 = 0.1951	0.112
298.15 K, x1 = 0.2555	0.128
298.15 K, x1 = 0.3138	0.138
298.15 K, x1 = 0.3702	0.143
298.15 K, x1 = 0.4248	0.145
298.15 K, x1 = 0.4776	0.144
298.15 K, x1 = 0.5287	0.14
298.15 K, x1 = 0.5782	0.134
298.15 K, x1 = 0.6262	0.127
298.15 K, x1 = 0.6727	0.118
298.15 K, x1 = 0.7178	0.107
298.15 K, x1 = 0.7617	0.0951
298.15 K, x1 = 0.8042	0.0815
298.15 K, x1 = 0.8455	0.0677
298.15 K, x1 = 0.8857	0.0523
298.15 K, x1 = 0.9248	0.036
298.15 K, x1 = 0.9628	0.0185
308.15 K, x1 = 0.0675	0.0506
308.15 K, x1 = 0.1325	0.0874
308.15 K, x1 = 0.1953	0.112
308.15 K, x1 = 0.2558	0.128
308.15 K, x1 = 0.3143	0.138
308.15 K, x1 = 0.3708	0.144
308.15 K, x1 = 0.4254	0.145
308.15 K, x1 = 0.4783	0.144
308.15 K, x1 = 0.5294	0.141
308.15 K, x1 = 0.589	0.135
308.15 K, x1 = 0.627	0.127
308.15 K, x1 = 0.6735	0.118
308.15 K, x1 = 0.7186	0.107
308.15 K, x1 = 0.7624	0.0959
308.15 K, x1 = 0.8049	0.0828
308.15 K, x1 = 0.8462	0.0682
308.15 K, x1 = 0.8863	0.0527
308.15 K, x1 = 0.9252	0.0366
308.15 K, x1 = 0.9631	0.0188
323.15 K, x1 = 0.0678	0.0469
323.15 K, x1 = 0.1326	0.0815
323.15 K, x1 = 0.1951	0.105
323.15 K, x1 = 0.2555	0.121
323.15 K, x1 = 0.3138	0.131
323.15 K, x1 = 0.3702	0.138
323.15 K, x1 = 0.4247	0.14
323.15 K, x1 = 0.4775	0.14
323.15 K, x1 = 0.5286	0.136
323.15 K, x1 = 0.5781	0.131
323.15 K, x1 = 0.6261	0.124
323.15 K, x1 = 0.6727	0.116
323.15 K, x1 = 0.7178	0.105
323.15 K, x1 = 0.7617	0.0939
323.15 K, x1 = 0.8042	0.0816
323.15 K, x1 = 0.8456	0.0673
323.15 K, x1 = 0.8858	0.0522
323.15 K, x1 = 0.9248	0.036
323.15 K, x1 = 0.9628	0.0189

OCCO [1,2-ethanediol] + CCCCO
excess molar enthalpy [kcal/mol], [2]
Conditions	298.15 K	308.15 K	323.15 K
x1 = 0.0798	–	–	0.0775
x1 = 0.0803	0.0708	0.0745	–
x1 = 0.1548	0.115	0.122	–
x1 = 0.1552	–	–	0.124
x1 = 0.225	0.144	0.152	–
x1 = 0.2253	–	–	0.159
x1 = 0.2912	0.161	0.171	–
x1 = 0.2914	–	–	0.179
x1 = 0.3537	0.172	0.181	–
x1 = 0.354	–	–	0.191
x1 = 0.4129	0.176	0.186	–
x1 = 0.4131	–	–	0.197
x1 = 0.4691	0.177	0.187	–
x1 = 0.4692	–	–	0.199
x1 = 0.5223	–	0.185	–
x1 = 0.5224	0.175	–	0.196
x1 = 0.573	0.17	0.18	0.19
x1 = 0.6211	–	0.172	0.184
x1 = 0.6212	0.163	–	–
x1 = 0.6671	0.154	0.163	0.172
x1 = 0.7108	–	–	0.16
x1 = 0.7109	0.143	0.152	–
x1 = 0.7527	0.132	0.139	0.147
x1 = 0.7926	0.117	0.124	0.132
x1 = 0.8308	0.103	0.108	–
x1 = 0.8309	–	–	0.116
x1 = 0.8675	0.0857	0.0913	0.0944
x1 = 0.9026	0.0679	0.0715	0.0749
x1 = 0.9362	0.0466	0.0485	–
x1 = 0.9363	–	–	0.0521
x1 = 0.9686	0.0243	0.026	–
x1 = 0.9687	–	–	0.0267

OCCO [1,2-ethanediol] + CCCO
excess molar enthalpy [kcal/mol], [2]
Conditions	298.15 K	308.15 K	323.15 K
x1 = 0.0644	–	–	0.0566
x1 = 0.0664	0.0498	0.0535	–
x1 = 0.13	0.0849	0.0912	0.0966
x1 = 0.1915	0.109	0.117	0.125
x1 = 0.2511	0.126	0.135	0.144
x1 = 0.3089	0.137	0.147	0.156
x1 = 0.3648	0.144	0.152	0.163
x1 = 0.4191	0.147	0.155	–
x1 = 0.4192	–	–	0.167
x1 = 0.4718	0.147	0.156	0.167
x1 = 0.5229	0.144	0.153	0.163
x1 = 0.5725	0.138	0.148	0.158
x1 = 0.6207	0.132	0.141	0.15
x1 = 0.6676	0.124	0.132	0.141
x1 = 0.7131	0.114	0.121	0.129
x1 = 0.7574	0.102	0.109	0.116
x1 = 0.8005	0.0897	0.0942	0.101
x1 = 0.8425	0.0741	0.0784	0.0838
x1 = 0.8833	–	–	0.0651
x1 = 0.8834	0.0581	0.0611	–
x1 = 0.9231	–	–	0.0448
x1 = 0.9232	0.04	0.0426	–
x1 = 0.9619	0.0209	0.0218	0.0229
